These results are taken from US20100310518A1, “Combinations of Flubendiamide and Beneficial Species” (Bayer CropScience AG, priority 2009, published 2010).

In one assay the test system is Myzus persicae. Description: Myzus persicae test (drench application) on cabbage plants, with predatory bugs added. The format is in vivo. The conditions noted are these: flubendiamide alone, 1 mg of ai/l soil, cabbage plants (Brassica oleracea). An excerpt: The expected action for a given combination of two active compounds can be calculated as follows, using the formula of S. R. Colby, Weeds 15 (1967), 20-22:
• X is the kill rate, expressed as % of the untreated control, when employing active compound A at an application rate of m g/ha, m mg of ai/plant or in a concentration of m ppm, • Y is the kill rate, expressed as % of the untreated control, when employing the beneficial species at an application rate of n animals or n units, and • E is the kill rate, expressed as % of the untreated control, when employing active compound
A and beneficial species B at an application rate of m ppm, m mg of ai/plant or g/ha and n animals or units,
If the actual insecticidal or acaricidal kill rate exceeds the calculated value, the kill of the combination is superadditive, i.e. a synergistic effect is present. In this case, the actually observed kill rate must exceed the value calculated using the above formula for the expected kill rate (E). […]
After the application, the predatory bugs (Macrolophus caliginosus) are added in a defined amount. After the desired period of time, the kill of the pest in % is determined 100% means that all of the aphids have been destroyed; 0% means that none of the aphids have been destroyed.
The kill rates determined are entered into Colby's formula (see above).

The next assay deals with Plutella xylostella. Description: Plutella xylostella test (drench application on rock wool). The format is in vivo. The conditions noted are these: for Kill in % after 7^d: 1 mg of ai/plant, drench, cabbage plants. As to the method: To produce a suitable preparation of active compound, 1 part by weight of active compound is mixed with the stated amounts of solvent and emulsifier, and the concentrate is diluted with water to the desired concentration.
Cabbage plants (Brassica oleracea) are watered with an active compound preparation of the desired concentration and infected with larvae of the diamondback moth (Plutella xylostella).
After the desired period of time, the kill of the pest in % is determined 100% means that all caterpillars have been killed; 0% means that none of the caterpillars have been killed.

In the case of `Cc1cc(C(F)(C(F)(F)F)C(F)(F)F)ccc1NC(=O)c1cccc(I)c1C(=O)NC(C)(C)CS(C)(=O)=O` [flubendiamide, 3-iodo-N′-(2-mesyl-1,1-dimethylethyl)-N-{4-[1,2,2,2-tetrafluoro-1-(trifluoromethyl)ethyl]-o-tolyl}phthalamide], in the assay on Myzus persicae, the “Kill in % after 4^h” value is on record as 45%. The systemic efficacy result with Plutella xylostella (applied to soil-less substrates) is “surprisingly good systemic efficacy”. Also, the “Kill in % after 7^d” value in the assay with Plutella xylostella (on rock wool) is listed as 97%; in the assay on Plutella xylostella (on sandy loam (prior art)), 40%.
